Experimental data reported in ChEMBL document CHEMBL5442219.

Tests used:
Conditions in all cases: Compound concentration 10 µM
[1] = target: T1, Alpha-1B adrenergic receptor (Homo sapiens) (UniProt P35368)
T1 sequence (whole entry): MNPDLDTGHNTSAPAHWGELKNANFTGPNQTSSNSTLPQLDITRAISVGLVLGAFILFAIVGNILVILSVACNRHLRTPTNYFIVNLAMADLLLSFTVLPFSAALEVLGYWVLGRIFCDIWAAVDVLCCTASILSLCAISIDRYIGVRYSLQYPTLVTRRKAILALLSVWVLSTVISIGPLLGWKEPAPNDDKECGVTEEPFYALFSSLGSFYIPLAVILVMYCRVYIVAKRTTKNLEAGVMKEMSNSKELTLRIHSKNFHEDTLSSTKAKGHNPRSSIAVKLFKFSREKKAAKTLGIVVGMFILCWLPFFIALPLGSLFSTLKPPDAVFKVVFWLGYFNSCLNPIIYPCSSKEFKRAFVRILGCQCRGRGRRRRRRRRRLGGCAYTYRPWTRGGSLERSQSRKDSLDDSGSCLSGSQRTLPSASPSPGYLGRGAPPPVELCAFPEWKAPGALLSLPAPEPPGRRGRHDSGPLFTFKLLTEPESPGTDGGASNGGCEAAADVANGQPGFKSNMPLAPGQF

[2] = target: T2, Alpha-2A adrenergic receptor (Homo sapiens) (UniProt P08913)
T2 sequence (whole entry): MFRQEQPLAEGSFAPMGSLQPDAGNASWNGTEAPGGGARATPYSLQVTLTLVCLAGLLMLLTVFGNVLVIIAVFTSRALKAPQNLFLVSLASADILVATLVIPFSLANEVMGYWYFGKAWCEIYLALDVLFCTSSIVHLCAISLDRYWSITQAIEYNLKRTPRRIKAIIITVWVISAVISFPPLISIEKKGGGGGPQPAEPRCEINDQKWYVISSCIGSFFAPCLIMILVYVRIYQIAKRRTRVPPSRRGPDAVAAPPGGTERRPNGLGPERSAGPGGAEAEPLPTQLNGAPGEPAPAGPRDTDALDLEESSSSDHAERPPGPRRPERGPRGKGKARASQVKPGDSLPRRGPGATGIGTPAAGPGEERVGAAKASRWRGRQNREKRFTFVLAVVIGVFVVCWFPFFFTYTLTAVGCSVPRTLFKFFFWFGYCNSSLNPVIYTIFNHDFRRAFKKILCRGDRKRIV

[3] = target: Beta-1 adrenergic receptor (Homo sapiens) (UniProt P08588)
Beta-1 adrenergic receptor (Homo sapiens), sequence (P08588 whole entry, looked up): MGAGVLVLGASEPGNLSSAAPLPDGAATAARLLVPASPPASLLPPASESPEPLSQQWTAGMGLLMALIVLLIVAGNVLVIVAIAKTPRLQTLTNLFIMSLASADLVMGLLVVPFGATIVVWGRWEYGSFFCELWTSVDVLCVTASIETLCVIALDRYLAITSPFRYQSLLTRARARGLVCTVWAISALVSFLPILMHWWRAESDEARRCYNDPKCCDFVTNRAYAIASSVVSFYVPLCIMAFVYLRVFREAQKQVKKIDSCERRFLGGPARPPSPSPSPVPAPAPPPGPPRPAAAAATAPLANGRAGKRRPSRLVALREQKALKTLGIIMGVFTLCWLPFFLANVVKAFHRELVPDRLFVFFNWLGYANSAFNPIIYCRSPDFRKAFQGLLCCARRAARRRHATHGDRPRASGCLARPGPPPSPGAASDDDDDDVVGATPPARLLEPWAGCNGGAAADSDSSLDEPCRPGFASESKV

[4] = target: D(1A) dopamine receptor (Homo sapiens) (UniProt P21728)
D(1A) dopamine receptor (Homo sapiens), sequence (P21728 whole entry): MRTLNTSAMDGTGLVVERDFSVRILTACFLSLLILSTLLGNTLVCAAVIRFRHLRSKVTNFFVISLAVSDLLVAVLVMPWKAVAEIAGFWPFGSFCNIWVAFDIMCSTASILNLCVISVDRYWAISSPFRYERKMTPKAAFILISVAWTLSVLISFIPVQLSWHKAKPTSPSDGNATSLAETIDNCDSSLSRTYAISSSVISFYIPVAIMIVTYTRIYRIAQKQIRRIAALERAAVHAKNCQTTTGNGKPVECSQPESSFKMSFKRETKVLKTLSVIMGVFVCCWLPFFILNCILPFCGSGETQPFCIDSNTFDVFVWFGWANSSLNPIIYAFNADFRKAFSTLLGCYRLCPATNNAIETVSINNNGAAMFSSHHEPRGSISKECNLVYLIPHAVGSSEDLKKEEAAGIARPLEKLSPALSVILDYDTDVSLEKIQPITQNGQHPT

[5] = target: T3, D(4) dopamine receptor (Homo sapiens) (UniProt P21917)
T3 sequence (whole entry): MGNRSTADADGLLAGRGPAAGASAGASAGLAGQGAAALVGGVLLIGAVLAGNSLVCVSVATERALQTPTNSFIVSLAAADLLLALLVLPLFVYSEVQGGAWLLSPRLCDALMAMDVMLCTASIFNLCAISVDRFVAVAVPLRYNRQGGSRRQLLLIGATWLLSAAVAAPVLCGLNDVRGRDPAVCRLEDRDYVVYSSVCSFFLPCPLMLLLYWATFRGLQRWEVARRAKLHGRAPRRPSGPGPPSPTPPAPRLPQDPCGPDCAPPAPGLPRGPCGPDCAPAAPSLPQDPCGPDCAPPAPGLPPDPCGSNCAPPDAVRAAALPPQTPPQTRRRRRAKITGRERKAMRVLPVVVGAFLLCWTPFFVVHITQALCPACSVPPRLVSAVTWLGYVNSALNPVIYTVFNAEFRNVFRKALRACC

[6] = target: Histamine H4 receptor (Homo sapiens) (UniProt Q9H3N8)
Histamine H4 receptor (Homo sapiens), sequence (Q9H3N8 whole entry): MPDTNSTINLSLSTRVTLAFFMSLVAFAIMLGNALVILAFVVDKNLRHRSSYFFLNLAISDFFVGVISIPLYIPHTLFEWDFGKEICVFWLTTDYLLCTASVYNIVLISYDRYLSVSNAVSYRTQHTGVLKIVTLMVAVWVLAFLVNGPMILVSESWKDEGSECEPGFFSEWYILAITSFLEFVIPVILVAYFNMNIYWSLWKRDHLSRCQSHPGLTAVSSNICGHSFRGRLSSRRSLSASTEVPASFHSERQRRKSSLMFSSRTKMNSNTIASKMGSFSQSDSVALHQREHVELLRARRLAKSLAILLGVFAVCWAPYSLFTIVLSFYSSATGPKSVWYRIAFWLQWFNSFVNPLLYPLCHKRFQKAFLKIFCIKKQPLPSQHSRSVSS

[7] = target: 5-hydroxytryptamine receptor 1D (Homo sapiens) (UniProt P28221)
5-hydroxytryptamine receptor 1D (Homo sapiens), sequence (P28221 whole entry): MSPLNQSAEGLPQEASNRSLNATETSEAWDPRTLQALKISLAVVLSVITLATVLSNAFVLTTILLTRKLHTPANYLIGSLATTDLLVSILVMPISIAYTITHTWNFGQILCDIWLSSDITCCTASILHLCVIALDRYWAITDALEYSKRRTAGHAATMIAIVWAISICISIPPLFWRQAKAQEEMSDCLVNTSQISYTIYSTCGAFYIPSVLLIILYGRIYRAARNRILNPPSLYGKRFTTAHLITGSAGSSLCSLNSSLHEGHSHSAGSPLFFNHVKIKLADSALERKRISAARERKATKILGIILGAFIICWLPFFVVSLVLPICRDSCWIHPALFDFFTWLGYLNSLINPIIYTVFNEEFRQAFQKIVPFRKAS

[8] = target: 5-hydroxytryptamine receptor 2B (Homo sapiens) (UniProt P41595)
5-hydroxytryptamine receptor 2B (Homo sapiens), sequence (P41595 whole entry): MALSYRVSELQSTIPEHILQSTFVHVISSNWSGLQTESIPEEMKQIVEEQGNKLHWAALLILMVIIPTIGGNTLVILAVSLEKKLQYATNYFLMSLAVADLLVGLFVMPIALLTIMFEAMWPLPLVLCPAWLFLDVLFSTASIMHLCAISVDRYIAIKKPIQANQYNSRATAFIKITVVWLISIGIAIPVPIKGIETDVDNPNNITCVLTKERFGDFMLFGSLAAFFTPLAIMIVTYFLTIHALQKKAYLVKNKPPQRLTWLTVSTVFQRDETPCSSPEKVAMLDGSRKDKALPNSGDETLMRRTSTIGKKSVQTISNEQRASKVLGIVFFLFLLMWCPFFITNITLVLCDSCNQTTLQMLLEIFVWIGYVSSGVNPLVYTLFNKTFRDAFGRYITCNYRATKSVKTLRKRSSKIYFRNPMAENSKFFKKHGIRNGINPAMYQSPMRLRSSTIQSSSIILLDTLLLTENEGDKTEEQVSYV

[9] = target: T4, 5-hydroxytryptamine receptor 2C (Homo sapiens) (UniProt P28335)
T4 sequence (whole entry): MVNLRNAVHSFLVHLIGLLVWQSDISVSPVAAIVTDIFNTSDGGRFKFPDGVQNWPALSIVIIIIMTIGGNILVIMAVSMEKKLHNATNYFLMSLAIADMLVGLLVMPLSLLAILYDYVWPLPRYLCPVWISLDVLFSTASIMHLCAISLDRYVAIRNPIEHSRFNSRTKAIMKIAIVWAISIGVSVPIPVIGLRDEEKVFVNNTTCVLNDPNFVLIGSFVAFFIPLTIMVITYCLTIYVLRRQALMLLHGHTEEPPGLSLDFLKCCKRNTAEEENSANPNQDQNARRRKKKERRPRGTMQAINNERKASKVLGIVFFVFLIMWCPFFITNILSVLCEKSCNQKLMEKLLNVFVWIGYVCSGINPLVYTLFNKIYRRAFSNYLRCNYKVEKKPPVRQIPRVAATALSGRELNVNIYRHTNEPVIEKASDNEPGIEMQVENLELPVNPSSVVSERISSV

[10] = target: T5, 5-hydroxytryptamine receptor 3A (Homo sapiens) (UniProt P46098)
T5 sequence (whole entry): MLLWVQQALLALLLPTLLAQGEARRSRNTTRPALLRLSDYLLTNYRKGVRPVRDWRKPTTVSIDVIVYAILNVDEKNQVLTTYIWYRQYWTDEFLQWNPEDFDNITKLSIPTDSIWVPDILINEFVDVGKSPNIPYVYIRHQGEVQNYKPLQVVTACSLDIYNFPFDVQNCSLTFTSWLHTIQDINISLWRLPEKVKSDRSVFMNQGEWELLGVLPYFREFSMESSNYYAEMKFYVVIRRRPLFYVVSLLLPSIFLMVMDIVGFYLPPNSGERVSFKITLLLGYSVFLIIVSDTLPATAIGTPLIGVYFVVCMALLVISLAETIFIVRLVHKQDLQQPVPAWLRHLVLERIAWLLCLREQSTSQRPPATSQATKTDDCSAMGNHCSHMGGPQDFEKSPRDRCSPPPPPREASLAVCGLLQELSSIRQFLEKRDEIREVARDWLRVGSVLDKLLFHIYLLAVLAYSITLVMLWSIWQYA

[11] = target: 5-hydroxytryptamine receptor 6 (Homo sapiens) (UniProt P50406)
5-hydroxytryptamine receptor 6 (Homo sapiens), sequence (P50406 whole entry): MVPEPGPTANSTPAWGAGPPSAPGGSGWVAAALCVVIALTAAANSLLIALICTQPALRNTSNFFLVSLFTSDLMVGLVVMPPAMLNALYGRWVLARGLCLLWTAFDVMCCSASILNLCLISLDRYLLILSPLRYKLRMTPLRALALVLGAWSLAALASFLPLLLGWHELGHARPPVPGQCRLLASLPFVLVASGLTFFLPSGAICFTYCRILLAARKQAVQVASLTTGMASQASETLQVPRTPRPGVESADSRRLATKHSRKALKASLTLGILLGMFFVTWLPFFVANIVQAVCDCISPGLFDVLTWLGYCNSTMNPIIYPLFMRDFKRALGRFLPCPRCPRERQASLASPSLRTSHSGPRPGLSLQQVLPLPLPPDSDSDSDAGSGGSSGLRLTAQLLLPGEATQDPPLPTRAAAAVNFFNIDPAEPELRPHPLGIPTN

[12] = target: Kappa-type opioid receptor (Homo sapiens) (UniProt P41145)
Kappa-type opioid receptor (Homo sapiens), sequence (P41145 whole entry): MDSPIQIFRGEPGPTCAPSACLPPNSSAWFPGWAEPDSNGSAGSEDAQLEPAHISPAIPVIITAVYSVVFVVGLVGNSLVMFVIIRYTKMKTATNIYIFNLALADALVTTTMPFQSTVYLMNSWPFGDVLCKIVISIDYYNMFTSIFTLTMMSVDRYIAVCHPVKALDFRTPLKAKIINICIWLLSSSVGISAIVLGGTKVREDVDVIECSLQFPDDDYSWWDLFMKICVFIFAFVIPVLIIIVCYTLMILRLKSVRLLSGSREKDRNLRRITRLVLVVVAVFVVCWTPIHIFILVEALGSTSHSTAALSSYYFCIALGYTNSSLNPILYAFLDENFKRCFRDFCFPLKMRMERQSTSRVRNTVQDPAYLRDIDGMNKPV

[13] = target: Sodium-dependent noradrenaline transporter (Homo sapiens) (UniProt P23975)
Sodium-dependent noradrenaline transporter (Homo sapiens), sequence (P23975 whole entry): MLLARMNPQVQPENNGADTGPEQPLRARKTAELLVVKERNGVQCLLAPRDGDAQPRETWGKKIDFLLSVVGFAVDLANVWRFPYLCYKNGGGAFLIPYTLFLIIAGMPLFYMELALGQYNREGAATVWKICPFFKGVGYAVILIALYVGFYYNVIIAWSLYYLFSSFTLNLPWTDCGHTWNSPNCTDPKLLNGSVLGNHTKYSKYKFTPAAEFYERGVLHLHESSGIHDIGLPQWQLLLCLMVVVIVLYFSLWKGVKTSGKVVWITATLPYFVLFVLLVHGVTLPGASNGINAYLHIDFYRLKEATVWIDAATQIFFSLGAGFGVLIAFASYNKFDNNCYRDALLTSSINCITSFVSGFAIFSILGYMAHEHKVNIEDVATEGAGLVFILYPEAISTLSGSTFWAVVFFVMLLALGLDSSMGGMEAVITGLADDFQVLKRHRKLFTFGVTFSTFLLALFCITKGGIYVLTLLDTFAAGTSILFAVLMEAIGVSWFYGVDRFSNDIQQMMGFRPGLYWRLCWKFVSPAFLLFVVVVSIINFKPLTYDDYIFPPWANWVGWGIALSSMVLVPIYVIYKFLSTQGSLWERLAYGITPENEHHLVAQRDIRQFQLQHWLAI

[14] = target: Muscarinic acetylcholine receptor M3 (Homo sapiens) (UniProt P20309)
Muscarinic acetylcholine receptor M3 (Homo sapiens), sequence (P20309 whole entry, looked up): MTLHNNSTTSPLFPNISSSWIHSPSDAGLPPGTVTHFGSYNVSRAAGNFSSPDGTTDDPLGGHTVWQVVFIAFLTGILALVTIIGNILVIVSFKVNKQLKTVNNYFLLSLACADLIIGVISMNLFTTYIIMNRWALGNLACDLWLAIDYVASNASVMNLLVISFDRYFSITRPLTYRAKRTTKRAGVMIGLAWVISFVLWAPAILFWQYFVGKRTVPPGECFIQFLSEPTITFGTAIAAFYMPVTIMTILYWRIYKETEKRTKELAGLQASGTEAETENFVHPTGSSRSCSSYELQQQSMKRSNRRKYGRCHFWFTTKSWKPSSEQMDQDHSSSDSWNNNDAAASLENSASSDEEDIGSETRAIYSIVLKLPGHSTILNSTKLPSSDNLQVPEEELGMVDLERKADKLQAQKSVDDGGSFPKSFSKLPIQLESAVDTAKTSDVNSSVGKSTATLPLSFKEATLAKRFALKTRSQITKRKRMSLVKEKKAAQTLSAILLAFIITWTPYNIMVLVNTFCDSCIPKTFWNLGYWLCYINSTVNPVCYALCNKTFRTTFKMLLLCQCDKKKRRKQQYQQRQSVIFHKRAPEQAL

## CC(C)NCC(O)COc1cccc2[nH]ccc12 (stereo unspecified)
[1]
  inhibition: 6.47%
[2]
  inhibition: 29%
[3]
  inhibition: 70.9%
[4]
  inhibition: 29.3%
[5]
  inhibition: 69.4%
[6]
  inhibition: -8.33%
[7]
  inhibition: 50.9%
[8]
  inhibition: 39.4%
[9]
  inhibition: 7.77%
[10]
  inhibition: -0.98%
[11]
  inhibition: 4.75%
[12]
  inhibition: 46.9%
[13]
  inhibition: 27.1%

## Brc1c(NC2=NCCN2)ccc2nccnc12
[1]
  inhibition: 55.7%
[2]
  inhibition: 103%
[3]
  inhibition: 23.8%
[5]
  inhibition: 16.9%
[6]
  inhibition: 2.56%
[7]
  inhibition: 49.5%
[8]
  inhibition: 22.7%
[9]
  inhibition: 6.61%
[10]
  inhibition: -5.05%
[11]
  inhibition: -2.59%
[13]
  inhibition: 19.2%

## CNC[C@H](O)c1ccc(O)c(O)c1
[1]
  inhibition: 2.3%
[2]
  inhibition: 49.1%
[3]
  inhibition: 37%
[4]
  inhibition: 10.9%
[5]
  inhibition: 20.1%
[6]
  inhibition: -7.99%
[7]
  inhibition: 15.8%
[8]
  inhibition: 1.88%

## CCC(=O)NCC[C@@H]1CCc2ccc3c(c21)CCO3
[1]
  inhibition: -0.82%
[2]
  inhibition: 18.4%
[3]
  inhibition: 28.5%
[4]
  inhibition: -1.3%
[5]
  inhibition: -3.2%
[7]
  inhibition: 6.75%
[8]
  inhibition: 72%
[9]
  inhibition: -6.58%
[10]
  inhibition: 6.73%
[12]
  inhibition: 14.2%
[13]
  inhibition: 18%

## COc1ccc2cc(S(=O)(=O)N[C@H](CC(=O)N[C@H](Cc3ccc(CN4[C@H](C)CCC[C@@H]4C)cc3)C(=O)N(C)C(C)C)c3ccc4c(c3)OCO4)ccc2c1
[1]
  inhibition: 2.74%
[2]
  inhibition: 39.4%
[3]
  inhibition: -0.19%
[14]
  inhibition: 14.5%
[4]
  inhibition: 11.7%
[5]
  inhibition: 33.2%
[6]
  inhibition: 9.34%
[8]
  inhibition: 27.5%
[9]
  inhibition: 19.7%
[10]
  inhibition: 12.8%
[11]
  inhibition: 4.73%
[12]
  inhibition: 96.7%
[13]
  inhibition: 25.7%

## N#Cc1c(N)nc(SCc2csc(-c3ccc(Cl)cc3)n2)c(C#N)c1-c1ccc(OCCO)cc1
[1]
  inhibition: 7.17%
[2]
  inhibition: 26.7%
[3]
  inhibition: 26.8%
[4]
  inhibition: 11.3%
[5]
  inhibition: 38.4%
[6]
  inhibition: -8.37%
[7]
  inhibition: 5.65%
[8]
  inhibition: 62.1%
[9]
  inhibition: 39.9%
[10]
  inhibition: 1.79%
[12]
  inhibition: -8.5%
[13]
  inhibition: 33.5%

## N#Cc1ccc(NC(=O)Nc2ccccc2Br)c2nn[nH]c12
[1]
  inhibition: 13.2%
[3]
  inhibition: 26.6%
[4]
  inhibition: 2.97%
[5]
  inhibition: 13.3%
[6]
  inhibition: 25.3%
[7]
  inhibition: 1.14%
[8]
  inhibition: 33.9%
[9]
  inhibition: 26.9%
[10]
  inhibition: 4.92%
[12]
  inhibition: 25.6%
[13]
  inhibition: 35.6%

## Clc1cccc(Cl)c1NC1=NCCN1
[1]
  inhibition: 65.3%
[2]
  inhibition: 103%
[3]
  inhibition: 31.6%
[5]
  inhibition: -2.87%
[6]
  inhibition: 2.9%
[7]
  inhibition: 29.5%
[8]
  inhibition: 93.8%
[9]
  inhibition: 55.7%
[10]
  inhibition: 5.96%
[12]
  inhibition: 11.2%
[13]
  inhibition: 20.9%

## NC(=O)[C@@H]1CCCN1C(=O)[C@H](Cc1c[nH]cn1)NC(=O)[C@@H]1CCC(=O)N1
[1]
  inhibition: -3.89%
[2]
  inhibition: 12.4%
[3]
  inhibition: -1.74%
[14]
  inhibition: 0.84%
[4]
  inhibition: -1.35%
[5]
  inhibition: 18.4%
[6]
  inhibition: 8.04%
[8]
  inhibition: 18.6%
[9]
  inhibition: -0.43%
[10]
  inhibition: 8.73%
[11]
  inhibition: 10.6%
[12]
  inhibition: 6.58%
[13]
  inhibition: 35.9%

## COc1ccc2[nH]cc(CCNC(C)=O)c2c1
[1]
  inhibition: 1.22%
[2]
  inhibition: 8.96%
[3]
  inhibition: 12%
[4]
  inhibition: 13.1%
[5]
  inhibition: 1.97%
[6]
  inhibition: -3.64%
[7]
  inhibition: 17.3%
[8]
  inhibition: 49.5%
[10]
  inhibition: -3.39%
[13]
  inhibition: -9.78%

## O=c1ccn([C@@H]2O[C@H](COP(=O)(O)OP(=O)(O)OP(=O)(O)O)[C@@H](O)[C@H]2O)c(=O)[nH]1
[2]
  inhibition: 11.6%
[3]
  inhibition: -2.2%
[14]
  inhibition: 5.24%
[4]
  inhibition: 45.1%
[5]
  inhibition: 53.3%
[6]
  inhibition: 4.53%
[8]
  inhibition: -4.24%
[9]
  inhibition: 9.66%
[10]
  inhibition: -3.36%
[11]
  inhibition: 11.9%
[12]
  inhibition: 47.6%
[13]
  inhibition: 11%

## O=C(O)C1CN(Cc2ccc(-c3nc4cc(Cc5ccccc5F)ccc4s3)c(F)c2)C1
[3]
  inhibition: 22.9%
[14]
  inhibition: -1.67%
[4]
  inhibition: 2.63%
[5]
  inhibition: -6.1%
[6]
  inhibition: -0.17%
[8]
  inhibition: -9.46%
[9]
  inhibition: 35.8%
[10]
  inhibition: -3.55%
[11]
  inhibition: 8.45%
[12]
  inhibition: 0.93%
[13]
  inhibition: 20.8%

## CCc1nn2c(C)cc(C)nc2c1Cc1ccc(-c2nnc(C3CCNCC3)o2)cc1
[1]
  inhibition: -7.24%
[2]
  inhibition: 42.9%
[3]
  inhibition: -6.08%
[5]
  inhibition: -4.88%
[6]
  inhibition: -1.79%
[7]
  inhibition: 14.8%
[8]
  inhibition: 9.86%
[9]
  inhibition: 10.1%
[10]
  inhibition: 93.4%
[11]
  inhibition: 14.4%
[12]
  inhibition: 4.27%
[13]
  inhibition: -8.38%

## NC[C@H](O)c1ccc(O)c(O)c1
[1]
  inhibition: 37.9%
[2]
  inhibition: 61.9%
[3]
  inhibition: 66.2%
[4]
  inhibition: 2.57%
[5]
  inhibition: 46.9%
[7]
  inhibition: 24.3%
[8]
  inhibition: 24.8%
[9]
  inhibition: -4.42%
[10]
  inhibition: -8.31%
[12]
  inhibition: 0.54%
[13]
  inhibition: 15.2%

## Cc1ccccc1N1CCN(S(=O)(=O)C[C@]23CC[C@H](C[C@@H]2NC(=O)[C@@H](N)CCS(C)(=O)=O)C3(C)C)CC1
[1]
  inhibition: -3.68%
[2]
  inhibition: 27.8%
[3]
  inhibition: 0.75%
[4]
  inhibition: 7.11%
[5]
  inhibition: -6.27%
[6]
  inhibition: -3.44%
[7]
  inhibition: -2.54%
[8]
  inhibition: 31.7%
[9]
  inhibition: -4.87%
[10]
  inhibition: -6.48%
[11]
  inhibition: 0.91%
[12]
  inhibition: 98.5%
